According to patent US20250152564A1, “PROPYLENE KETONE-CONTAINING BIOINHIBITOR, PREPARATION METHOD THEREFOR, AND USE THEREOF” (SHANGHAI HANSOH BIOMEDICAL CO., LTD., priority 2022, published 2025):

Assays:
NCI-H716 cells = test: CellTiter-Glo cell proliferation inhibition, NCI-H716; type: cell-based; settings: Homo sapiens, 72 h, read-out: NCI-H716 cell proliferation inhibition rate IC50
Protocol: (§1) To evaluate inhibitory effects of the compounds on the proliferation of NCI-H716, SNU-16 and BaF3-FGFR2-BICC1 V564F cells by cell proliferation inhibition experiments.
(§2) CellTiter-Glo method was used to detect inhibitory effects of the compounds on the proliferation of NCI-H716, SNU-16 and BaF3 FGFR2-BICC1 V564F cells. The highest detection concentration of the compounds was 1000 nM, which was diluted in 3 folds, with a total of 9 concentrations (1000 nM to 0.15 nM). After the cells were plated at an appropriate density, compounds were added the next day and incubated for 72 h before detection using the […] detection kit.
(§3) 1) Inhibition rate (%): Inhibition rate %=[(mean value in positive control well−value in sample well)/(mean value in positive control well−mean value in negative control well)]×100, wherein the positive control well was a reaction well without a compound […], and the negative control well was a reaction wells without an enzyme.
(§4) 2) Curve fitting: Log(inhibitor) vs. response—Variable slope (four parameters) in GraphPad Prism 6 was used for fitting equation analysis of the compound concentration and the corresponding inhibition rate, and the curve was fitted to obtain the IC50 values of the compounds.

FGFR1 = FGFR1 (Homo sapiens (Human), UniProt P11362); test: TR-FRET kinase inhibition assay, FGFR1; type: biochemical; settings: ATP Km concentration (30 μM)
Sequence of FGFR1 (P11362 478-767): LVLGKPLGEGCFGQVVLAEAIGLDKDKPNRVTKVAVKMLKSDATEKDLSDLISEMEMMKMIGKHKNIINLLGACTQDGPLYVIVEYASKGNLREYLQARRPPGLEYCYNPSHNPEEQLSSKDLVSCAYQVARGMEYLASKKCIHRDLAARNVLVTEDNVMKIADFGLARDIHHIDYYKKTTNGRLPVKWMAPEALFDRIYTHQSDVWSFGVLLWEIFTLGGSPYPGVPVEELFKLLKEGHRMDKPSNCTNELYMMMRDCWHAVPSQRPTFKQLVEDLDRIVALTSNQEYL
Protocol: (§5) To measure the IC50 values of the compounds against FGFR1, FGFR2, FGFR3, FGFR4, and FGFR2 V564F at ATP Km concentrations by TR-FRET method.
(§6) TR-FRET (time-resolved fluorescence resonance energy transfer) method was used to detect the inhibitory activity of the compounds on FGFR1, FGFR2, FGFR3, FGFR4, and FGFR2 V564F kinase region fragments. The highest detection concentration of the compounds in 5 kinase experiments was 1000 nM, which was diluted in 3 folds, with a total of 11 concentrations (1000 nM to 0.017 nM). A kinase buffer (50 mM HEPES pH 7.5, 1 mM EGTA, 10 mM MgCl2, 2 mM DTT, and 0.01% Tween-20) was used to prepare 4× enzyme solution, 4× compound solutions diluted in gradient, and a 2×ATP/Peptide substrate solution. To a 384-well plate, 2.5 μL of enzyme solution and 2.5 μL of diluted […] compound solution were added, and 5 μL of 2×ATP/Peptide substrate solution was then added. After reacting at room temperature for 60 minutes for FGFR1, FGFR2, FGFR3, and FGFR2 V564F kinases, and 120 minutes for FGFR4 kinase, 10 μL of a 2× termination and detection mixed liquid prepared with 1×LANCE detection buffer with an EDTA concentration of 20 mM and a Europium-anti-phosphotyrosine (PT66) concentration of 2 nM was added to each well of the plate. After reacting at room temperature for 60 minutes for FGFR1, FGFR2, FGFR3, and FGFR4, and 30 minutes for FGFR2 V564F, the fluorescence signal value in each well of the plate was measured by a microplate reader.
as §3, with “(%): Calculation was performed on the raw data (665 nm/620 nm reading ratio) according to the following formula to obtain the inhibition rate.” for “(%):”
as §4

FGFR2 V564F = FGFR2 V564F (Homo sapiens (Human), UniProt P21802, V564F); test: TR-FRET kinase inhibition assay, FGFR2 V564F; type: biochemical; settings: ATP Km concentration (20 μM)
Sequence of FGFR2 V564F (P21802 481-770 V564F): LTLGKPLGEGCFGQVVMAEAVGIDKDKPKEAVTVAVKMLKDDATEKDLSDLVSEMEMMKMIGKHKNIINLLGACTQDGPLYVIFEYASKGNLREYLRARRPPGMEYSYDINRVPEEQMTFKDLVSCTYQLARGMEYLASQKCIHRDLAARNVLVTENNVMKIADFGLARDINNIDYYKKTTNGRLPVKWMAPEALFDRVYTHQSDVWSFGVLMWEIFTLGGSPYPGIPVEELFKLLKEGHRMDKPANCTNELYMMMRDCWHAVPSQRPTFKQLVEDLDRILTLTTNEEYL
Protocol: as §5, §6
as §3, with “(%): Calculation was performed on the raw data (665 nm/620 nm reading ratio) according to the following formula to obtain the inhibition rate.” for “(%):”
as §4

[1] = test system: BaF3 FGFR2-BICC1 V564F cells; test: CellTiter-Glo cell proliferation inhibition, BaF3 FGFR2-BICC1 V564F; type: cell-based; settings: Mus musculus, 72 h, read-out: BaF3 FGFR2-BICC1 V564F inhibitory activity IC50
Protocol: as §1, §2, §3, §4

FGFR2 = FGFR2 (Homo sapiens (Human), UniProt P21802); test: TR-FRET kinase inhibition assay, FGFR2; type: biochemical; settings: ATP Km concentration (30 μM)
Sequence of FGFR2 (P21802 481-770): as the sequence (P21802 481-770 V564F) above, with F84V counted along it
Protocol: as §5, §6
as §3, with “(%): Calculation was performed on the raw data (665 nm/620 nm reading ratio) according to the following formula to obtain the inhibition rate.” for “(%):”
as §4

[2] = Pharmacokinetic experiment in SD rats after oral administration; type: in vivo; settings: 5 mg/kg, plasma
Protocol: To study the pharmacokinetic behavior of the compounds of the present invention in the rat body (plasma) after oral administration at a dose of 5 mg/kg using SD rats as test animals.
3 SD rats/group, male, from Shanghai Jiesijie Experimental Animal Co., Ltd., animal production license number (SCXK (Shanghai) 2013-0006 N0.311620400001794).
PO, 10% solutol HS15-0.5% CMC-Na was dissolved by ultrasound and prepared into a clear solution or homogeneous suspension.
3 SD rats/group, male; p.o. respectively at a dose of 5 mg/kg and an administration volume of 10 mL/kg after the […] were fasted overnight.
After oral administration to rats, at 0.25, 0.5, 1, 2, 4, 6, 8 and 24 hours, 0.2 mL of blood was collected from the jugular vein, placed in an EDTA-K2 test tube, centrifuged at 6000 rpm for 6 min at 4° C. to separate the plasma, which was stored at −80° C.
1) 100 μL of acetonitrile was added to 20 μL of plasma sample for pelleting, and it was mixed and centrifuged at 3500×g for 5-20 min.
2) The treated supernatant solution was taken and subjected to LC/MS/MS to analyze the concentrations of the test compounds. LC/MS/MS analysis instrument: AB Sciex API 4000 Qtrap.
• Liquid phase conditions: Shimadzu LC-20AD pump • Chromatographic column: Waters Xbridge C18 5 μm, 4.6×50 mm mobile phase: liquid A was 0.1% aqueous formic acid solution, and liquid B was methanol • Flow rate: 1.0 mL/min • Elution time: 0-4.0 min, the eluent was as follows: […]

| Structure (SMILES) | IC50 (NCI-H716 cells) [nM] | IC50 (FGFR1) [nM] | IC50 (FGFR2 V564F) [nM] | IC50 [1] [nM] | IC50 (FGFR2) [nM] | AUC(0-t) ([2]; male, Sprague-Dawley (SD), rat, po, read-out: Area under the curve AUC0-t) [ng·h/mL] | AUC(0-inf) ([2]; male, Sprague-Dawley (SD), rat, po, read-out: Area under the curve AUC0-∞) [ng·h/mL] | half-life ([2]; male, Sprague-Dawley (SD), rat, po, read-out: Half-life t1/2 (converted)) [h] | MRT ([2]; male, Sprague-Dawley (SD), rat, po, read-out: Mean residence time MRT) [h] | Cmax ([2]; male, Sprague-Dawley (SD), rat, po, read-out: Plasma concentration Cmax) [ng/mL] | Time to peak tmax ([2]; p.o.) [h] |
| --- | --- | --- | --- | --- | --- | --- | --- | --- | --- | --- | --- |
| C=CC(=O)N1CC[C@H](n2nc(C#Cc3ccc4c(c3)ncn4C)c3c(N)ncc(C(=O)C4CC4)c32)C1 [Example 65, (S)-1-(3-(4-amino-7-(cyclopropanecarbonyl)-3-((1-methyl-1H-benzo[d]imidazol-5-yl)ethynyl)-1H-pyrazolo[4,3-c]pyridin-1-yl)pyrrolidin-1-yl)prop-2-en-1-one] | 1.5 | 2.8 | 0.5 | 1.4 | 0.7 |  |  |  |  |  |  |
| C=CC(=O)N1CC[C@H](n2nc(C#Cc3cc4ncn(C)c4cc3F)c3c(N)ncc(-c4nccs4)c32)C1 [Example 9, (S)-1-(3-(4-amino-3-((6-fluoro-1-methyl-1H-benzo[d]imidazol-5-yl)ethynyl)-7-(thiazol-2-yl)-1H-pyrazolo[4,3-c]pyridin-1-yl)pyrrolidin-1-yl)prop-2-en-1-one] | 1.82 |  | 1 | 1.6 | 2.2 |  |  |  |  |  |  |
| C=CC(=O)N1CC[C@H](n2nc(C#Cc3cc4ncn(CC)c4cc3F)c3c(N)ncc(C(=O)CC)c32)C1 [Example 60, (S)-1-(3-(4-amino-3-((1-ethyl-6-fluoro-1H-benzo[d]imidazol-5-yl)ethynyl)-7-propionyl-1H-pyrazolo[4,3-c]pyridin-1-yl)pyrrolidin-1-yl)prop-2-en-1-one] | 2.19 | 4.7 | 0.4 | 1.7 | 0.9 |  |  |  |  |  |  |
| C=CC(=O)N1CC[C@H](n2nc(C#Cc3cc4ncn(C5CC5)c4cc3Cl)c3c(N)ncc(C(=O)CC)c32)C1 [Example 45, (S)-1-(3-(4-amino-3-((6-chloro-1-cyclopropyl-1H-benzo[d]imidazol-5-yl)ethynyl)-7-propionyl-1H-pyrazolo[4,3-c]pyridin-1-yl)pyrrolidin-1-yl)prop-2-en-1-one] | 1.84 |  | 0.7 | 0.6 |  | 1440 | 1460 | 4.3 | 4.59 | 290 | 2 |
| C=CC(=O)N1CC[C@H](n2nc(C#Cc3ccn4ccnc4c3)c3c(N)ncc(C(=O)C4CC4)c32)C1 [Example 79, (S)-1-(3-(4-amino-7-(cyclopropanecarbonyl)-3-(imidazo[1,2-a]pyridine-7-ethynylene)-1H-pyrazolo[4,3-c]pyridin-1-yl)pyrrolidine-1-methyl)prop-2-en-1-one] | 1.2 | 4.5 | 0.4 | 1.1 | 0.7 |  |  |  |  |  |  |
| C=CC(=O)N1CC[C@H](n2nc(C#Cc3cc4ncn(C)c4cc3F)c3c(N)ncc(C(C)=O)c32)C1 [Example 8, (S)-1-(3-(7-acetyl-4-amino-3-((6-fluoro-1-methyl-1H-benzo[d]imidazol-5-yl)ethynyl)-1H-pyrazolo[4,3-c]pyridin-1-yl)pyrrolidin-1-yl)prop-2-en-1-one] | 1.74 |  |  | 0.4 |  |  |  |  |  |  |  |
| C=CC(=O)N1CC[C@H](n2nc(C#Cc3cc4ncn(C5CC5)c4cc3F)c3c(N)ncc(C(=O)C4CC4)c32)C1 [Example 49, (S)-1-(3-(4-amino-7-(cyclopropanecarbonyl)-3-((1-cyclopropyl-6-fluoro-1H-benzo[d]imidazol-5-yl)ethynyl)-1H-pyrazolo[4,3-c]pyridin-1-yl)pyrrolidin-1-yl)prop-2-en-1-one] | 1.92 | 3.9 | 1 | 0.4 | 1.3 |  |  |  |  |  |  |

These reach a lower IC50 (NCI-H716 cells). Values come first.

| IC50 (NCI-H716 cells) [nM] | IC50 (FGFR1) [nM] | IC50 (FGFR2 V564F) [nM] | IC50 [1] [nM] | IC50 (FGFR2) [nM] | AUC(0-t) ([2]; male, Sprague-Dawley (SD), rat, po, read-out: Area under the curve AUC0-t) [ng·h/mL] | AUC(0-inf) ([2]; male, Sprague-Dawley (SD), rat, po, read-out: Area under the curve AUC0-∞) [ng·h/mL] | half-life ([2]; male, Sprague-Dawley (SD), rat, po, read-out: Half-life t1/2 (converted)) [h] | MRT ([2]; male, Sprague-Dawley (SD), rat, po, read-out: Mean residence time MRT) [h] | Cmax ([2]; male, Sprague-Dawley (SD), rat, po, read-out: Plasma concentration Cmax) [ng/mL] | Time to peak tmax ([2]; p.o.) [h] | Structure (SMILES) |
| --- | --- | --- | --- | --- | --- | --- | --- | --- | --- | --- | --- |
| 0.82 | 1.7 | 0.3 | 0.7 | 0.3 |  |  |  |  |  |  | C=CC(=O)N1CC[C@H](n2nc(C#Cc3ccc4cn(C)nc4c3)c3c(N)ncc(C(=O)CC)c32)C1 [Example 83, (S)-1-(3-(4-amino-3-((2-methyl-2H-indazol-6-yl)alkynyl)-7-propionyl-1H-pyrazolo[4,3-c]pyridin-1-yl)pyrrolidine-1-methyl)prop-2-en-1-one] |
| 0.92 |  | 1.4 | 2.9 | 1.8 |  |  |  |  |  |  | C=CC(=O)N1CC[C@H](n2nc(C#Cc3ccn4ccnc4c3)c3c(N)ncc(C(C)=O)c32)C1 [Example 77, (S)-1-(3-(7-acetyl-4-amino-3-(imidazo[1,2-a]pyridine-7-ethynylene)-1H-pyrazolo[4,3-c]pyridin-1-yl)pyrrolidine-1-methyl)prop-2-en-1-one] |
| 0.94 | 2.7 | 0.7 | 1.6 | 0.4 |  |  |  |  |  |  | C=CC(=O)N1CC[C@H](n2nc(C#Cc3ccc4csnc4c3)c3c(N)ncc(C(C)=O)c32)C1 [Example 89, (S)-1-(3-(7-acetyl-4-amino-3-(benzo[c]isothiazole-6-ethynylene)-1H-pyrazolo[4,3-c]pyridin-1-yl)pyrrolidine-1-methyl)prop-2-en-1-one] |
| 0.98 |  | 3.1 | 3.2 | 1.6 |  |  |  |  |  |  | C=CC(=O)N1CC[C@H](n2nc(C#Cc3ccc4csnc4c3)c3c(N)ncc(C(=O)CC)c32)C1 [Example 90, (S)-1-(3-(4-amino-3-(benzo[c]isothiazole-6-ethynylene)-7-propionyl-1H-pyrazolo[4,3-c]pyridin-1-yl)pyrrolidine-1-methyl)prop-2-en-1-one] |
| 1.04 | 1 | 0.3 | 0.1 | 0.5 |  |  |  |  |  |  | C=CC(=O)N1CC[C@H](n2nc(C#Cc3ccc4cn(C)nc4c3)c3c(N)ncc(C(=O)C4CC4)c32)C1 [Example 84, (S)-1-(3-(4-amino-7-(cyclopropanecarbonyl)-3-((2-methyl-2H-indazol-6-yl)ethynyl)-1H-pyrazolo[4,3-c]pyridin-1-yl)pyrrolidin-1-yl)prop-2-en-1-one] |
| 0.97 | 3.9 | 1.1 | 0.8 | 1 |  |  |  |  |  |  | C=CC(=O)N1CC[C@H](n2nc(C#Cc3ccc4csnc4c3)c3c(N)ncc(C(=O)C4CC4)c32)C1 [Example 91, (S)-1-(3-(4-amino-3-(benzo[c]isothiazole-6-ethynylene)-7-(cyclopropanecarbonyl)-1H-pyrazolo[4,3-c]pyridin-1-yl)pyrrolidine-1-methyl)prop-2-en-1-one] |
